We go through twelve molecules from ChEMBL document CHEMBL2086224, “The design, synthesis, and biological evaluation of potent receptor tyrosine kinase inhibitors” (Bioorg Med Chem Lett, 2012).

The nature of data set [1]: Drug uptake in human MDA-MB-231 cells xenografted mouse tumor at 10 mg/kg. It counts as ADME, organism-based, Neoplasm. Set-up: dose 10 mg/kg. The conditions noted are these: in vivo, read-out: Drug uptake.
Data set [2] is described as follows: Drug uptake in human MDA-MB-231 cells xenografted mouse tumor at 30 mg/kg. It counts as ADME, organism-based, Neoplasm. The conditions noted are these: in vivo, read-out: Drug uptake. Set-up: dose 30 mg/kg.
A short description of data set [3]: Drug uptake in human MDA-MB-231 cells xenografted mouse tumor at 60 mg/kg. In kind it is ADME, organism-based, Neoplasm. Set-up: dose 60 mg/kg. The conditions noted are these: in vivo, read-out: Drug uptake.
The nature of data set [4]: Drug uptake in human MDA-MB-231 cells xenografted mouse tumor at 100 mg/kg. It counts as ADME, organism-based, Neoplasm. On the set-up: dose 100 mg/kg. The conditions noted are these: in vivo, read-out: Drug uptake.
The nature of data set [5]: Plasma concentration in athymic nu/nu mouse bearing human MDA-MB-231 tumor at 10 to 100 mg/kg, po administered QD for 14 days. It counts as ADME, organism-based. Set-up: dose 10-100 mg/kg, route oral.
Data set [6] can be described thus: Plasma concentration in athymic nu/nu mouse bearing human HT-29 tumor at 10 to 100 mg/kg, po administered QD for 14 days. In kind it is ADME, organism-based. Set-up: dose 10-100 mg/kg, route oral.
Data set [7] can be described thus: AUC (0 to infinity) in rat at 10 mg/kg, po. It counts as ADME, organism-based. Set-up: time infinity, dose 10 mg/kg, route oral. The conditions noted are these: plasma.
Data set [8] is described as follows: Half life in rat at 10 mg/kg, po. It counts as ADME, organism-based. Set-up: dose 10 mg/kg, route oral. The conditions noted are these: in vivo.
Data set [9] can be described thus: Oral bioavailability in rat at 10 mg/kg. The conditions noted are these: in vivo. In kind it is ADME, organism-based.
Data set [10] is described as follows: Plasma concentration in VEGF stimulated-mouse at 1 mg/kg, po after 4 hrs. It counts as ADME, organism-based. Set-up: dose 1 mg/kg, route oral.
A short description of data set [11]: Plasma concentration in VEGF stimulated-mouse at 3 mg/kg, po after 4 hrs. On the set-up: dose 3 mg/kg, route oral. It counts as ADME, organism-based.
Data set [12] is described as follows: Plasma concentration in VEGF stimulated-mouse at 10 mg/kg, po after 4 hrs. In kind it is ADME, organism-based. On the set-up: dose 10 mg/kg, route oral.
The nature of data set [13]: Plasma concentration in VEGF stimulated-mouse at 30 mg/kg, po after 4 hrs. It counts as ADME, organism-based. On the set-up: dose 30 mg/kg, route oral.
Data set [14] can be described thus: Plasma concentration in VEGF stimulated-mouse at 60 mg/kg, po after 4 hrs. In kind it is ADME, organism-based. On the set-up: dose 60 mg/kg, route oral.
A short description of data set [15]: Plasma concentration in VEGF stimulated-mouse at 100 mg/kg, po after 4 hrs. Set-up: dose 100 mg/kg, route oral. It counts as ADME, organism-based.
Data set [16] deals with Lung. The experiment in a line: Drug uptake in VEGF-stimulated mouse lung at 1 mg/kg, po after 4 hrs. In kind it is ADME, organism-based. On the set-up: dose 1 mg/kg, route oral. The conditions noted are these: in vivo, BLD = below limit of detection.
A short description of data set [17]: Drug uptake in VEGF-stimulated mouse lung at 3 mg/kg, po after 4 hrs. It counts as ADME, organism-based. Set-up: dose 3 mg/kg, route oral. The conditions noted are these: read-out: Drug uptake.
Data set [18] is described as follows: Drug uptake in VEGF-stimulated mouse lung at 10 mg/kg, po after 4 hrs. In kind it is ADME, organism-based. On the set-up: dose 10 mg/kg, route oral. The conditions noted are these: read-out: Drug uptake.
Data set [19] is described as follows: Drug uptake in VEGF-stimulated mouse lung at 30 mg/kg, po after 4 hrs. In kind it is ADME, organism-based. On the set-up: dose 30 mg/kg, route oral. The conditions noted are these: read-out: Drug uptake.
A short description of data set [20]: Drug uptake in VEGF-stimulated mouse lung at 60 mg/kg, po after 4 hrs. In kind it is ADME, organism-based. On the set-up: dose 60 mg/kg, route oral. The conditions noted are these: read-out: Drug uptake.
A short description of data set [21]: Drug uptake in VEGF-stimulated mouse lung at 100 mg/kg, po after 4 hrs. In kind it is ADME, organism-based. On the set-up: dose 100 mg/kg, route oral. The conditions noted are these: read-out: Drug uptake.
Data set [22] deals with Plasma. The experiment in a line: Plasma concentration in human MDA-MB-231 cells xenografted mouse at 1 mg/kg. In kind it is ADME, organism-based. Set-up: dose 1 mg/kg. The conditions noted are these: in vivo, BLD = below limit of detection.
For data set [23], the system named is Plasma. Put plainly: Plasma concentration in human MDA-MB-231 cells xenografted mouse at 3 mg/kg. It counts as ADME, organism-based. Set-up: dose 3 mg/kg. The conditions noted are these: in vivo.
Data set [24] concerns Plasma. The experiment in a line: Plasma concentration in human MDA-MB-231 cells xenografted mouse at 10 mg/kg. In kind it is ADME, organism-based. The conditions noted are these: in vivo. Set-up: dose 10 mg/kg.
For data set [25], the system named is Plasma. The experiment in a line: Plasma concentration in human MDA-MB-231 cells xenografted mouse at 30 mg/kg. It counts as ADME, organism-based. Set-up: dose 30 mg/kg. The conditions noted are these: in vivo.
The test system of data set [26] is Plasma. Put plainly: Plasma concentration in human MDA-MB-231 cells xenografted mouse at 60 mg/kg. It counts as ADME, organism-based. On the set-up: dose 60 mg/kg. The conditions noted are these: in vivo.
Data set [27] relates to Plasma. The experiment in a line: Plasma concentration in human MDA-MB-231 cells xenografted mouse at 100 mg/kg. In kind it is ADME, organism-based. Set-up: dose 100 mg/kg. The conditions noted are these: in vivo.
Data set [28] can be described thus: Drug uptake in human MDA-MB-231 cells xenografted mouse tumor at 1 mg/kg. It counts as ADME, organism-based, Neoplasm. On the set-up: dose 1 mg/kg. The conditions noted are these: in vivo, BLD = below limit of detection.
Data set [29] in a line: Drug uptake in human MDA-MB-231 cells xenografted mouse tumor at 3 mg/kg. It counts as ADME, organism-based, Neoplasm. Set-up: dose 3 mg/kg. The conditions noted are these: in vivo, BLD = below limit of detection.
Data set [30] is described as follows: Permeability across MDCK cells. It counts as ADME, cell-based, Canis lupus familiaris. The conditions noted are these: dog, read-out: permeability.
Data set [31] can be described thus: Clearance in rat. In kind it is ADME, organism-based. The conditions noted are these: in vivo.
Data set [32] in a line: Oral bioavailability in rat. It counts as ADME, organism-based. The conditions noted are these: in vivo.

Consider `CCN1CCC(Nc2ccc3c(c2)C(=C(c2ccc(Cl)cc2)c2ncc[nH]2)C(=O)N3)CC1` (mixture of isomers), for which the concentration in [1] was 340 nM; in [2], 1400 nM; in data set [3], 3600 nM; in data set [4] it was 8800 nM; in data set [23], 10 nM; in data set [24] it was 40 nM. The concentration in data set [25] was determined as 200 nM; in data set [26], 260 nM; in [27], 800 nM. The concentration at 336 h in [5] and in [6] was 1000 nM in each case. Moreover, the AUC(0-inf) in data set [7] is 5.04 µM·h. In data set [8], the half-life was 10.7 h. The bioavailability in [9] was determined as 63%. For the same molecule, the concentration at 4 h in data set [10] came out at 4 nM; in data set [11], 10 nM; in data set [12], 20 nM; in data set [13], 10 nM; in data set [14] it was 10 nM; in data set [15] it was 620 nM. Further, the concentration at 4 h stood at 70 nM in [17]; 280 nM in data set [18]; 470 nM in data set [19]; 810 nM in [20]; 3550 nM in data set [21]. The Drug uptake entry in [16], in data set [28] and in data set [29] was “BLD” in each case. Besides, the Cp result in data set [22] is listed as “BLD”. For the same molecule, the Papp in data set [30] was 6.8 ×10⁻⁶ cm/s.

Consider `CCN1CCC(Nc2ccc3c(c2)C(=C(c2ccccc2)c2nc4cc(OC)ccc4[nH]2)C(=O)N3)CC1` (mixture of isomers), for which, in [31], the clearance is 108 mL/min/kg. In [32], the bioavailability is 19%.

For `CCN1CCC(Nc2ccc3c(c2)C(=C(c2cccc(F)c2)c2nc4ccccc4[nH]2)C(=O)N3)CC1` (mixture of isomers), the AUC(0-inf) in [7] worked out at 1.99 µM·h. In data set [8], this molecule had a half-life of 4.4 h. In [9], this molecule showed a bioavailability of 63%.

As to `CCN1CCC(Nc2ccc3c(c2)C(=C(c2cccc(F)c2)c2ncc(C)[nH]2)C(=O)N3)CC1` (mixture of isomers), in data set [7], the AUC(0-inf) was found to be 1.9 µM·h. In [8], this molecule had a half-life of 4.6 h. For the same molecule, in [9], the bioavailability was 20%.

As for `CCN1CCC(Nc2ccc3c(c2)C(=C(c2ccccc2)c2nc4ccccc4[nH]2)C(=O)N3)CC1` (mixture of isomers), the area under the curve AUC(0-inf) in data set [7] was 1.44 µM·h. Further, in data set [8], the half-life is 5.7 h. This molecule displayed a bioavailability in data set [9] of 37%.

For `CCN1CCC(Nc2ccc3c(c2)C(=C(c2cccc(F)c2)c2ncc[nH]2)C(=O)N3)CC1` (mixture of isomers), the AUC(0-inf) in data set [7] was 1.12 µM·h. This molecule showed a half-life in [8] of 5.4 h. This molecule also had a bioavailability in data set [9] of 15%.

The molecule `CCN1CCC(Nc2ccc3c(c2)C(=C(c2ccc(C)cc2)c2nc4ccccc4[nH]2)C(=O)N3)CC1` (mixture of isomers) came in with an AUC(0-inf) in [7] of 2.36 µM·h. Moreover, the half-life in data set [8] is 4.6 h. Moreover, in data set [9], the bioavailability came to 55%.

The molecule `CCN1CCC(Nc2ccc3c(c2)C(=C(c2cc(F)cc(F)c2)c2nc4ccccc4[nH]2)C(=O)N3)CC1` (mixture of isomers) had an AUC(0-inf) in [7] of 3.14 µM·h. In data set [8], this molecule had a half-life of 3.8 h. The molecule also showed a bioavailability in data set [9] of 72%.

Molecule `CCN1CCC(Nc2ccc3c(c2)C(=C(c2cc(F)cc(F)c2)c2nc(C)c[nH]2)C(=O)N3)CC1` (mixture of isomers) gave a total exposure AUC(0-inf) in data set [7] of 5.19 µM·h. In data set [8], this molecule had a half-life of 7.2 h. The molecule also displayed a bioavailability in [9] of 59%.

Turning to `CCN1CCC(Nc2ccc3c(c2)C(=C(c2nc(C)c[nH]2)c2ccccc2F)C(=O)N3)CC1` (mixture of isomers), in [7], the AUC(0-inf) stood at 1.03 µM·h. This molecule gave a half-life in data set [8] of 2.3 h. Besides, in data set [9], the bioavailability stood at 25%.

As for `CCN1CCC(Nc2ccc3c(c2)C(=C(c2ccccc2)c2ncc[nH]2)C(=O)N3)CC1` (mixture of isomers), the AUC(0-inf) in data set [7] was 1.5 µM·h. The same molecule showed a half-life in [8] of 11.6 h. The molecule further showed a bioavailability in data set [9] of 16%.

In [7], `CCN1CCC(Nc2ccc3c(c2)C(=C(c2ccc(OC)cc2)c2nc4ccccc4[nH]2)C(=O)N3)CC1` (mixture of isomers) showed an AUC(0-inf) of 0.33 µM·h. The half-life in data set [8] is 7.5 h. The same molecule registered a bioavailability in [9] of 27%.
